US11882828B2, “Mosquito vector control compositions, methods and products utilizing same” (priority 2015, dated 2024)

How the values were obtained:
[1] = tested on: Anopheles stephensi; assay: whole plant or invertebrate; details: Anopheles stephensi, 48 h
Procedure, shortened: (§1)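 Non-blood-fed adult females (2–5 days old), ten per well, were placed on dried ethanol deposits of the test compound at a defined concentration and fed 10% sucrose. Mortality was scored at 48 hours as the mean of two replicates.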

[2] = tested on: Aedes aegypti; assay: whole plant or invertebrate; details: Aedes aegypti, 48 h
Procedure, shortened: as §1

[3] = tested on: Aedes aegypti (Yellow fever mosquito); assay: whole plant or invertebrate; details: Aedes aegypti
Description: […] Once the deposits were dry, five non-blood fed adult female Aedes aegypti (between two to five days old) were added to each well, and sustained with a 10% sucrose solution in a cotton wool plug. Assessment of the knockdown after 1 hour, and mortality after 48 hours was carried out.
(§2) In case of multiple tests, the mean value is reported.

[4] = tested on: Ae. Aegypti New Orleans; assay: Example B4: cross resistance study, 6-well plate; format: in vivo; details: for Knockdown: after 60 minutes, New Orleans
Description: (§3) In each study, a set of plates were infested with a known insecticide susceptible strain of mosquitoes from the same genera as the resistant strains.
(§4) Assessment of the knockdown after 60 minutes and mortality after 24 hours was carried out. Each treatment was replicated a minimum of four times, with the mean knockdown or mortality recorded.
(§5) A comparison of the knockdown and mortality of the resistant strain of mosquitoes was made to that of the susceptible to identify evidence of cross resistance.

[5] = tested on: An. Arabiensis Moz sus; assay: Example B4: cross resistance study, 6-well plate; format: in vivo; details: for Knockdown: after 60 minutes, Moz sus
Description: as §3, §4, §5

[6] = tested on: An. Gambiae Tiassalé; assay: Example B4: cross resistance study, 6-well plate; format: in vivo; details: for Knockdown: after 60 minutes, Tiassalé
Description: as §3, §4, §5

[7] = tested on: An. Arabiensis Ndjamina; assay: Example B4: cross resistance study, 6-well plate; format: in vivo
Description: as §3, §4, §5

[8] = tested on: Ae. aegypti Caymon; assay: Example B4: cross resistance study, 6-well plate; format: in vivo; details: for Knockdown: after 60 minutes, Caymon
Description: as §3, §4, §5

[9] = tested on: An. Gambiae Kisumu rdl; assay: Example B4: cross resistance study, 6-well plate; format: in vivo; details: for Knockdown: after 60 minutes, Kisumu rdl
Description: as §3, §4, §5

[10] = tested on: An. Gambiae Kisumu sus; assay: Example B4: cross resistance study, 6-well plate; format: in vivo; details: for Knockdown: after 60 minutes, Kisumu sus
Description: as §3, §4, §5

[11] = tested on: An. stephensi; assay: Example B4: cross resistance study, 6-well plate; format: in vivo; details: for Knockdown: after 60 minutes, An. stephensi
Description: as §3, §4, §5

[12] = tested on: Anopheles stephensi; assay: Example B7: evaluation of insecticide impregnated polymer surfaces; format: in vivo; details: AI content 2 wt %; for knock-down: after one hour; for mortality: 24 hours after exposure
Text: (§6) Preparation of polymeric sheets: Certain methoxyacrylate were Impregnated into three polymers: LDPE (low density polyethylene), HDPE (high density polyethylene) and PP (polypropylene) in different concentrations by mixing the respective polymer with a compound at high temperatures and the resultant polymeric material were then mould into thin discs or plaques.
(§7) Twenty four hours prior to the relevant assessment intervals, three to five day old non-blood fed adult mosquitoes were taken from the culture and lightly anaesthetised with carbon dioxide. Ten females were selected and placed in a 250 ml plastic cup, retained with a net lid, provided with a 10% sucrose solution soaked in a cotton wool bung and held under culturing environmental conditions.
(§8) After twenty four hours, impregnated polymer sheets (measuring about 150 mm in diameter and about 0.1 mm in thickness) were removed from storage and wrapped around the glazed side of an 11 cm ceramic tile and held in place with an elastic band. A cup of the pre-selected mosquitoes were again lightly anaesthetised with carbon dioxide and transferred from the holding cup to the base of a 9 cm plastic Petri dish. The relevant impregnated polymer sheet was placed over the Petri dish and held in place with an elastic band. Once the mosquitoes had recovered from the anaesthetic, ca. 1 minute, the impregnated polymer sheet was placed on a holding rack, such that treated side was at an angle of […] to the horizontal.
(§9) After one hour an assessment of mosquito knockdown was made. A mosquito was said to be knocked down if it was unable to right itself once it had fallen over. The mosquitoes were lightly anaesthetised again, and removed from the Petri dish exposure chamber and returned to the holding cups. The mosquitoes were supplied with a 10% sucrose solution soaked in a cotton wool bung and held under culturing environmental conditions. An assessment of mortality was made 24 hours after exposure. A mosquito was said to be dead if it is unable to right itself once it had fallen over.

[13] = tested on: Aedes aegypti; assay: as above; format: in vivo; details: AI content 2 wt %, polymer 4 to 6 weeks old; for knock-down: after one hour; for mortality: 24 hours after exposure
Text: as §6, §7, §8, §9

[14] = tested on: Anopheles stephensi (Indian malaria mosquito); assay: whole plant or invertebrate; details: Anopheles stephensi
Description: […] Once the deposits were dry, five non-blood fed adult female Anopheles stephensi (between two to five days old) were added to each well, and sustained with a 10% sucrose solution in a cotton wool plug. Assessment of the knockdown after 1 hour, and mortality after 48 hours was carried out.
as §2

[15] = tested on: An. Gambiae Tiassalé; assay: Example B5: bottle based cross resistance study (CDC bottle assay); format: in vivo; details: for Knockdown (%) at 15 mins / Knockdown (%) at 60 mins: 20 ppm, bottle, Tiassalé; for mortality at 20 ppm: Anopheles gambiae
Description: (§10) Based on the “CDC bottle assay” (described at http://www.cdc.gov/malaria/resources/pdf/fsp/ir_manual/ir_cdc_bioassay_en.pdf) 1 ml of ethanol containing a test compound at a defined concentration was added to a 250 ml glass bottle and the bottles were placed on a rolling table to coat the inner surfaces as the solvent evaporated. Once dry, twenty five non-blood fed adult female mosquitoes of the appropriate species and strains (each three day old) were aspirated from the stock culture and gently blown into the exposure bottles. The lid of the bottle was replaced and the bottle placed upright out of direct sun light under standard culture conditions, nominally 28C and 60-80% relative humidity.
(§11) A stopwatch was started, and the assessment of the knock-down were made after 15 minutes and 60 minutes. A mosquito was said to be knocked down if it was unable to stand, following the CDC definition. The bottles were replaced in an upright position when not being assessed.
(§12) After one hour the mosquitoes were carefully removed from the bottle with an aspirator and placed in a recovery cup. The mosquitoes were supplied with a 10% sucrose solution on a cotton wool bung, and stored under culture conditions. Assessments of the mortality were made after 24 hours.
(§13) Each treatment was replicated a minimum of four times, with the mean knockdown or mortality recorded. In each study, a set of bottles was infested with a known insecticide susceptible strain of mosquitoes from the same genera as the resistant strains.

[16] = tested on: An. Gambiae Kisumu sus; assay: as above; format: in vivo; details: for mortality at 20 ppm / mortality at 25 ppm: Anopheles gambiae; for mortality at 25 ppm: 24 h
Description: as §10, §11, §12, §13

[17] = tested on: An. stephensi; assay: as above; format: in vivo; details: for Knockdown (%) at 15 mins / Knockdown (%) at 60 mins: 20 ppm, bottle, An. stephensi; for mortality at 20 ppm: Anopheles stephensi
Description: as §10, §11, §12, §13

[18] = tested on: FUMOZ; assay: as above; format: in vivo; details: Anopheles funestus, 24 h, 25 ppm, after 24 hours, FUMOZ
Description: as §10, §11, §12, §13

[19] = tested on: VK7; assay: as above; format: in vivo; details: Anopheles coluzzii, 24 h, after 24 hours
Description: as §10, §11, §12, §13

How did the mortality at 5 ppm [1] turn out when `CO/C=C(/C(=O)OC)c1ccccc1Oc1nnc(C(F)(F)F)s1` [Compound 6, Methyl (E)-3-methoxy-2-[2-[[5-(trifluoromethyl)-1,3,4-thiadiazol-2-yl]oxy]phenyl]-prop-2-enoate] was run?
Its mortality at 5 ppm is 98%.

What about the mortality at 5 ppm [2] of the same compound?
The mortality at 5 ppm was 66%.

And the pest or weed control at 20 ppm ([3]; 1 h, read-out: Knockdown)?
Its pest or weed control at 20 ppm is 100%.

And the mortality at 20 ppm ([3]; 48 h)?
The mortality at 20 ppm was 100%.

And the Knockdown ([4]; 2.00 ppm)?
Its Knockdown is 95%.

And the mortality at 2 ppm ([4]; Aedes aegypti, 24 h)?
The mortality at 2 ppm was 100%.

And the Knockdown ([5]; 2.00 ppm)?
Its Knockdown is 90%.

And the mortality at 2 ppm ([5]; Anopheles arabiensis, 24 h)?
The mortality at 2 ppm was 100%.

What about the Knockdown ([6]; 2.00 ppm) of the same compound?
Its Knockdown is 84%.

What about the mortality at 2 ppm ([6]; Anopheles gambiae, 24 h) of the same compound?
The mortality at 2 ppm was 94%.

What about the Knockdown ([7]; 2.00 ppm, after 60 minutes, Ndjamina) of the same compound?
Its Knockdown is 100%.

And the mortality at 2 ppm ([7]; Anopheles arabiensis, 24 h)?
The mortality at 2 ppm was 100%.

And the Knockdown ([8]; 2.00 ppm)?
Its Knockdown is 5%.

And the mortality at 2 ppm ([8]; Aedes aegypti, 24 h)?
The mortality at 2 ppm was 63%.

And the Knockdown ([9]; 2.00 ppm)?
The Knockdown was 78%.

What about the mortality at 2 ppm ([9]; Anopheles gambiae, 24 h) of the same compound?
Its mortality at 2 ppm is 89%.

And the Knockdown ([10]; 2.00 ppm)?
Its Knockdown is 86%.

What about the mortality at 2 ppm ([10]; Anopheles gambiae, 24 h) of the same compound?
Its mortality at 2 ppm is 100%.

And the Knockdown ([11]; 2.00 ppm)?
Its Knockdown is 100%.

And the mortality at 2 ppm ([11]; Anopheles stephensi, 24 h)?
Its mortality at 2 ppm is 100%.

What about the knock-down ([12]; HDPE, polymer 4 to 6 weeks old) of the same compound?
The knock-down was 87%.

What about the knock-down ([12]; HDPE, polymer 6 to 8 weeks old) of the same compound?
The knock-down was 100%.

What about the knock-down ([12]; LDPE, polymer 4 to 6 weeks old) of the same compound?
Its knock-down is 97%.

What about the knock-down ([12]; LDPE, polymer 6 to 8 weeks old) of the same compound?
The knock-down was 100%.

What about the knock-down ([12]; PP, polymer 4 to 6 weeks old) of the same compound?
Its knock-down is 100%.

And the knock-down ([12]; PP, polymer 6 to 8 weeks old)?
The knock-down was 90%.

And the knock-down ([13]; HDPE)?
The knock-down was 87%.

And the knock-down ([13]; LDPE)?
Its knock-down is 100%.

And the knock-down ([13]; PP)?
The knock-down was 83%.

And the pest or weed control at 20 ppm ([14]; 1 h, read-out: Knockdown)?
The pest or weed control at 20 ppm was 100%.

What about the mortality at 20 ppm ([14]; 48 h) of the same compound?
The mortality at 20 ppm was 100%.

And the “Knockdown (%) at 15 mins” value [15]?
Its value is 93%.

What about the “Knockdown (%) at 60 mins” value [15] of the same compound?
Its value is 98%.

What about the mortality at 20 ppm [15] of the same compound?
The mortality at 20 ppm was 91%.

And the “Knockdown (%) at 15 mins” value ([16]; 20 ppm, bottle, Kisumu sus)?
The value was 100%.

What about the “Knockdown (%) at 60 mins” value ([16]; 20 ppm, bottle, Kisumu sus) of the same compound?
The value was 100%.

And the mortality at 20 ppm [16]?
Its mortality at 20 ppm is 100%.

And the “Knockdown (%) at 15 mins” value [17]?
The value was 83%.

And the “Knockdown (%) at 60 mins” value [17]?
Its value is 100%.

And the mortality at 20 ppm [17]?
The mortality at 20 ppm was 100%.

Which results are given for `CC1(C)C(C=C(Cl)Cl)C1C(=O)OCc1cccc(Oc2ccccc2)c1` (stereo not drawn) [Permethrin, reference compound]?
Knockdown ([4]; 2.50 ppm): 91%; mortality at 2.5 ppm ([4]; Aedes aegypti, 24 h): 100%; Knockdown ([5]; 2.50 ppm): 75%; mortality at 2.5 ppm ([5]; Anopheles arabiensis, 24 h): 100%; Knockdown ([6]; 2.50 ppm): 5%; mortality at 2.5 ppm ([6]; Anopheles gambiae, 24 h): 14%; Knockdown ([8]; 2.50 ppm): 0%; mortality at 2.5 ppm ([8]; Aedes aegypti, 24 h): 45%; Knockdown ([9]; 2.50 ppm): 100%; mortality at 2.5 ppm ([9]; Anopheles gambiae, 24 h): 100%; Knockdown ([10]; 2.50 ppm): 100%; mortality at 2.5 ppm ([10]; Anopheles gambiae, 24 h): 100%; Knockdown ([11]; 2.50 ppm): 85%; mortality at 2.5 ppm ([11]; Anopheles stephensi, 24 h): 100%; mortality ([12]; HDPE, polymer 4 to 6 weeks old): 70%; knock-down ([12]; HDPE, polymer 4 to 6 weeks old): 100%; mortality ([12]; HDPE, polymer 6 to 8 weeks old): 97%; knock-down ([12]; HDPE, polymer 6 to 8 weeks old): 100%; mortality ([12]; LDPE, polymer 4 to 6 weeks old): 100%; knock-down ([12]; LDPE, polymer 4 to 6 weeks old): 100%; mortality ([12]; LDPE, polymer 6 to 8 weeks old): 100%; knock-down ([12]; LDPE, polymer 6 to 8 weeks old): 100%; mortality ([12]; PP, polymer 4 to 6 weeks old): 23%; knock-down ([12]; PP, polymer 4 to 6 weeks old): 100%; mortality ([12]; PP, polymer 6 to 8 weeks old): 67%; knock-down ([12]; PP, polymer 6 to 8 weeks old): 100%; mortality ([13]; HDPE): 97%; knock-down ([13]; HDPE): 100%; mortality ([13]; LDPE): 100%; knock-down ([13]; LDPE): 100%; mortality ([13]; PP): 80%; knock-down ([13]; PP): 87%; Knockdown (%) at 15 mins [15]: 50%; Knockdown (%) at 60 mins [15]: 99%; mortality at 20 ppm [15]: 85%; mortality at 25 ppm ([18]; Table B5b): 24%; mortality at 25 ppm ([18]; Table B5c): 46%; mortality at 25 ppm ([19]; Table B5b): 3%; mortality at 25 ppm ([19]; Table B5c): 4%; Knockdown (%) at 15 mins ([16]; 20 ppm, bottle, Kisumu sus): 100%; Knockdown (%) at 60 mins ([16]; 20 ppm, bottle, Kisumu sus): 100%; mortality at 20 ppm ([16]; 20 ppm, bottle, one hour exposure, after 24 hours, Kisumu sus): 100%; mortality at 25 ppm ([16]; Table B5b, after 24 hours, Kisumu sus): 99%; mortality at 25 ppm ([16]; Table B5c, after 24 hours, Kisumu sus): 100%; Knockdown (%) at 15 mins [17]: 97%; Knockdown (%) at 60 mins [17]: 100%; mortality at 20 ppm [17]: 100%
